# Tests used:
# Assay in all cases: relative viability (nuclei count vs DMSO), 5 days (fraction); higher = more cells survive
# [1] = compound: CS(=O)(=O)CCNCc1ccc(-c2ccc3ncnc(Nc4ccc(OCc5cccc(F)c5)c(Cl)c4)c3c2)o1 [Lapatinib] + O=C(c1cc(Cc2n[nH]c(=O)c3ccccc23)ccc1F)N1CCN(C(=O)C2CC2)CC1 [Olaparib] (partner 8 µM)
# Method in brief: (§1)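 Dosing by pin tool came one day after lung cancer cell lines were seeded in 1536-well plates, using either one drug or a fixed anchor-drug dose plus five library-drug doses (not always all listed) in √10 steps. After 5 days, nuclei were counted on 4× images. Relative viability is treated-well nuclei count divided by vehicle-well nuclei count, and values are medians of duplicate plates.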
# [2] = compound: CS(=O)(=O)CCNCc1ccc(-c2ccc3ncnc(Nc4ccc(OCc5cccc(F)c5)c(Cl)c4)c3c2)o1 [Lapatinib] + CC(C)C[C@H](NC(=O)[C@H](Cc1ccccc1)NC(=O)c1cnccn1)B(O)O [Bortezomib] (partner 0.002 µM)
# Method in brief: as §1
# [3] = compound: CS(=O)(=O)CCNCc1ccc(-c2ccc3ncnc(Nc4ccc(OCc5cccc(F)c5)c(Cl)c4)c3c2)o1 [Lapatinib] + CCNC(=O)c1noc(-c2cc(C(C)C)c(O)cc2O)c1-c1ccc(CN2CCOCC2)cc1 [Luminespib] (partner 0.01 µM)
# Method in brief: as §1
# [4] = compound: CC1=NC=CC(=C1)C2=CC=C(C=C2)CC(=O)NC3=CC=C(C=C3)C4=CN=CC=C4 [Wnt-C59] + Cc1cc(Nc2cc(N3CCN(C)CC3)nc(Sc3ccc(NC(=O)C4CC4)cc3)n2)n[nH]1 [Tozasertib] (partner 0.1 µM)
# Method in brief: as §1
Cell Line,relative viability ([1]; first compound 0.02 µM),relative viability ([1]; first compound 0.06325 µM),relative viability ([1]; first compound 0.2 µM),relative viability ([1]; first compound 0.6325 µM),relative viability ([1]; first compound 2 µM),relative viability ([2]; first compound 0.02 µM),relative viability ([2]; first compound 0.06325 µM),relative viability ([2]; first compound 0.2 µM),relative viability ([2]; first compound 0.6325 µM),relative viability ([2]; first compound 2 µM),relative viability ([3]; first compound 0.02 µM),relative viability ([3]; first compound 0.06325 µM),relative viability ([3]; first compound 0.2 µM),relative viability ([3]; first compound 0.6325 µM),relative viability ([3]; first compound 2 µM),relative viability ([4]; first compound 0.001 µM),relative viability ([4]; first compound 0.01 µM),relative viability ([4]; first compound 0.03162 µM),relative viability ([4]; first compound 0.1 µM)
LU99A,0.302,0.282,0.276,0.237,0.234,1.05,0.932,1.15,1.15,0.94,0.253,0.248,0.285,0.251,0.244,0.256,0.276,0.272,0.262
NCI-H2085,0.744,0.795,0.8,0.711,0.581,0.667,0.979,0.998,0.994,1.02,,0.402,0.396,0.447,0.322,0.807,0.795,0.831,0.824
NCI-H2126,0.933,0.757,0.894,0.825,0.794,,1.05,1.04,1.03,1.03,,0.729,0.833,0.859,0.775,0.882,0.876,0.874,0.82
LCLC-103H,0.786,0.664,0.762,0.719,0.762,,1.03,1.13,1.06,1.04,0.954,0.82,0.877,0.891,0.852,0.516,0.487,0.475,0.474
NCI-H2347,0.636,0.568,0.598,0.629,0.527,,1.17,0.87,0.796,1,,0.156,0.638,0.523,0.361,0.581,0.453,0.446,0.618
NCI-H1437,0.62,0.626,0.62,0.609,0.507,0.523,0.46,0.421,0.394,0.39,0.961,1.21,1.16,1.13,1.02,0.426,0.428,0.417,0.384
NCI-H1650,0.73,0.847,0.767,0.802,0.621,0.203,0.206,0.223,0.192,0.243,0.19,0.202,0.198,0.2,0.2,0.423,0.477,0.499,0.423
LCLC-97TM1,,0.342,0.417,0.387,0.345,,,0.515,0.74,0.819,,,0.676,0.765,0.875,0.252,0.205,0.226,0.182
RERF-LC-KJ,0.934,0.896,0.947,0.811,0.682,0.911,0.948,1.02,0.983,0.766,1.13,1.25,1.16,1.2,0.797,0.48,0.561,0.515,0.481
HCC-827,0.591,0.656,0.533,0.678,0.549,0.982,1.04,1.1,0.94,1.07,0.74,0.8,0.629,0.624,0.253,0.45,0.427,0.374,0.443
SK-LU-1,0.298,0.449,0.565,0.555,0.433,,1.04,1.05,1.2,1.2,0.176,0.223,0.238,0.175,0.2,0.317,0.323,0.331,0.295
COR-L 105,0.603,0.657,0.647,0.669,0.406,0.503,0.512,0.637,0.524,0.378,0.592,0.698,0.857,0.716,0.6,0.297,0.332,0.371,0.437
HARA,0.712,0.552,0.957,0.618,0.402,1.08,0.579,1.05,0.961,0.694,,0.58,0.54,0.499,0.399,0.103,0.135,0.151,0.088
NCI-H460,,0.406,0.421,0.41,0.262,1.02,1.02,1.15,0.984,1.11,0.0268,0.035,0.0347,0.0312,0.026,0.465,0.0488,0.555,0.48
SW 1573,0.401,0.443,0.519,0.444,0.522,1.01,0.892,0.953,1.18,1.01,0.293,0.23,0.387,0.233,0.146,0.144,0.196,0.342,0.167
NCI-H2228,0.562,0.537,0.728,0.482,0.436,0.841,1,1.09,1.01,0.801,0.137,0.128,0.145,0.143,0.123,0.31,0.322,0.264,0.23
NCI-H520,0.349,0.278,0.363,0.326,0.366,0.699,0.388,0.59,0.54,0.416,0.21,0.226,0.26,0.242,0.233,0.434,0.54,0.496,0.43
ABC-1,0.983,0.882,,0.781,0.9,,0.362,0.324,0.434,0.333,,,0.509,,0.64,0.15,0.166,0.164,0.19

Cell Line,relative viability ([1]; first compound 0.02 µM),relative viability ([1]; first compound 0.06325 µM),relative viability ([1]; first compound 0.2 µM),relative viability ([1]; first compound 0.6325 µM),relative viability ([1]; first compound 2 µM),relative viability ([2]; first compound 0.02 µM),relative viability ([2]; first compound 0.06325 µM),relative viability ([2]; first compound 0.2 µM),relative viability ([2]; first compound 0.6325 µM),relative viability ([2]; first compound 2 µM),relative viability ([3]; first compound 0.02 µM),relative viability ([3]; first compound 0.06325 µM),relative viability ([3]; first compound 0.2 µM),relative viability ([3]; first compound 0.6325 µM),relative viability ([3]; first compound 2 µM),relative viability ([4]; first compound 0.001 µM),relative viability ([4]; first compound 0.01 µM),relative viability ([4]; first compound 0.03162 µM),relative viability ([4]; first compound 0.1 µM)
HCC-44,0.981,1,0.992,0.974,0.867,0.762,0.855,0.901,0.953,0.8,,0.716,1.14,0.965,1.06,1.12,0.909,0.976,0.864
NCI-H2023,0.435,0.455,0.436,0.444,0.397,0.135,0.712,0.969,1.1,0.913,0.696,0.593,0.723,0.751,0.619,0.406,0.332,0.352,0.356
LOU-NH91,0.921,0.748,0.836,0.696,0.617,,0.469,0.522,0.499,0.544,0.368,0.305,0.364,0.346,0.362,0.775,0.597,0.695,0.682
NCI-H727,0.666,,0.88,0.668,0.645,0.758,0.78,1.04,1.09,0.801,,,0.285,0.278,0.431,0.702,0.547,0.586,0.565
NCI-H322M,0.756,0.711,0.836,0.818,0.763,1.12,1.02,1.08,1.23,1.3,0.883,0.6,0.758,0.753,0.633,0.444,0.432,0.454,0.427
NCI-H650,,0.355,0.372,0.397,0.337,,0.662,0.653,0.86,0.841,,0.81,0.729,0.862,0.854,0.734,0.748,0.802,0.729
NCI-H596,,0.578,0.713,0.679,0.567,1.17,1.04,0.964,1.03,0.776,,0.879,1.04,0.944,0.756,0.943,0.778,0.882,0.905
PC-3 [JPC-3],,1.09,,1.16,0.883,,0.796,0.818,0.864,0.837,0.74,0.665,0.648,0.722,0.477,0.935,0.922,0.984,0.911
NCI-H1355,0.719,0.594,0.699,0.688,0.439,,0.954,1.13,1.2,0.573,,0.646,0.634,0.685,0.441,0.599,0.581,0.564,0.558
COR-L23,0.329,0.358,0.33,0.309,0.275,0.948,1.07,1.08,0.934,0.998,0.715,0.688,0.731,0.646,0.567,0.202,0.237,0.233,0.19
201T,0.85,0.848,0.858,0.833,0.778,1.06,1.12,1.08,1.08,1.14,1.02,0.976,1.03,1.03,1.04,0.96,0.923,1.05,0.952
NCI-H661,0.663,0.72,0.708,0.631,0.545,0.703,0.756,0.674,0.618,0.482,0.887,0.925,0.814,0.807,0.584,0.351,0.324,0.352,0.357
HCC-15,,0.706,0.689,0.659,0.621,,1.06,1.02,1,0.979,,0.425,0.303,0.293,0.235,0.407,0.389,0.322,0.44
NCI-H2405,,0.763,,0.854,0.754,0.66,0.946,1.06,0.963,0.854,0.696,0.469,0.52,0.567,0.467,0.729,0.672,0.778,0.699
NCI-H838,0.773,0.715,0.771,0.746,0.575,1.08,0.461,0.843,0.829,0.674,0.25,0.341,0.381,0.258,0.283,0.332,0.247,0.293,0.263
EPLC-272H,0.7,0.544,0.767,0.614,0.527,,0.837,0.904,1.01,0.781,,,0.44,0.205,0.359,0.297,0.25,0.362,0.276
NCI-H1915,,0.277,0.275,0.243,0.237,,0.973,1.04,0.915,0.953,,0.847,0.832,0.707,0.848,0.471,0.404,0.508,0.457
